Results published in ChEMBL document CHEMBL1157778, “Frontal affinity chromatography-mass spectrometry useful for characterization of new ligands for GPR17 receptor” (J Med Chem, 2010).

Tests used:
Format in all cases: functional, cell-based
[1] = target: T1, Uracil nucleotide/cysteinyl leukotriene receptor (Homo sapiens, UniProt Q13304); experiment: Antagonist activity at human GPR17 expressed in human 1321N1 cells assessed as inhibition of UDP-glucose-induced [35S]GTPgammaS binding after 30 mins by rapid filtration assay
[2] = target: T1, Uracil nucleotide/cysteinyl leukotriene receptor; experiment: Agonist activity at human GPR17 expressed in human 1321N1 cells assessed as induction of [35S]GTPgammaS binding after 30 mins by rapid filtration assay
[3] = Agonist activity at human GPR17 R255I mutant expressed in human 1321N1 cells assessed as induction of [35S]GTPgammaS binding after 30 mins by rapid filtration assay
[4] = Antagonist activity at human GPR17 R255I mutant expressed in human 1321N1 cells assessed as inhibition of UDP-glucose-induced [35S]GTPgammaS binding after 30 mins by rapid filtration assay

T1 sequence (Q13304 whole entry): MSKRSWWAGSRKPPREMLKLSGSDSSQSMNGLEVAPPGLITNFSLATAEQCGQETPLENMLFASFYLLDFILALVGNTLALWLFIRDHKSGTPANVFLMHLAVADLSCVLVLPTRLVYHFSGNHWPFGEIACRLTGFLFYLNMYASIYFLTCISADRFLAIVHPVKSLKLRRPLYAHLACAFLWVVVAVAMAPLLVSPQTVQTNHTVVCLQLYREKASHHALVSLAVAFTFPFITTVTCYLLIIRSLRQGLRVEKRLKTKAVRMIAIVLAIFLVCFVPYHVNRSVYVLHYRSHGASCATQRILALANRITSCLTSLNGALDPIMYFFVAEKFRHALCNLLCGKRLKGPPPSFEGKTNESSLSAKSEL

| SMILES | IC50 [1] [nM] | EC50 [2] [nM] | also measured |
| --- | --- | --- | --- |
| CNc1ncnc2c1ncn2[C@@H]1O[C@H](COP(=O)(O)OP(=O)(O)OP(=O)(O)O)[C@@H](O)[C@H]1O | 112 |  |  |
| CNc1nc(Cl)cc2c1ncn2[C@@H]1O[C@H](COP(=O)(O)OP(=O)(O)OP(=O)(O)O)[C@@H](O)[C@H]1O |  | 1.7 |  |
| O=P(O)(O)OP(=O)(O)OP(=O)(O)OC[C@H]1O[C@@H](n2cnc3c(NC4CCCC4)ncnc32)[C@H](O)[C@@H]1O |  | 1.4 |  |
| CNc1nc(Cl)nc2c1ncn2[C@@H]1O[C@H](COP(=O)(O)OP(=O)(O)OP(=O)(O)O)[C@@H](O)[C@H]1O |  | 11 |  |
| Nc1nc(C#Cc2ccccc2)nc2c1ncn2[C@@H]1O[C@H](COP(=O)(O)OP(=O)(O)OP(=O)(O)O)[C@@H](O)[C@H]1O |  | 0.036 | EC50 [3]: 0.0254 nM |
| CNc1ncnc2c1ncn2[C@H]1C[C@H](OP(=O)(O)O)[C@@H](COP(=O)(O)O)O1 | 508 |  | IC50 [4]: 227 nM |
| Nc1nc(Cl)nc2c1ncn2[C@H]1C[C@H](OP(=O)(O)O)[C@@H](COP(=O)(O)O)O1 | 582 |  |  |
| O=c1[nH]c(=O)n([C@@H]2O[C@H](COP(=O)(O)OP(=O)(O)O)[C@@H](O)[C@H]2O)cc1I |  | 945 | EC50 [3]: 1870 nM |
